Measured values published in paper PMC3663881 (Journal of biomolecular screening, 2013).

Assays:
[1] = biological target: RhaS (Escherichia coli, UniProt P09377, L201R); experiment: EMSA, inhibition of DNA binding by purified protein
[2] = biological target: RhaR (Escherichia coli, UniProt P09378); experiment: as above
[3] = biological target: LacI (UniProt P03023 1-360); experiment: EMSA
[4] = biological target: T1, GB1b-RhaR (UniProt P09378 1-282); experiment: EMSA
T1 sequence: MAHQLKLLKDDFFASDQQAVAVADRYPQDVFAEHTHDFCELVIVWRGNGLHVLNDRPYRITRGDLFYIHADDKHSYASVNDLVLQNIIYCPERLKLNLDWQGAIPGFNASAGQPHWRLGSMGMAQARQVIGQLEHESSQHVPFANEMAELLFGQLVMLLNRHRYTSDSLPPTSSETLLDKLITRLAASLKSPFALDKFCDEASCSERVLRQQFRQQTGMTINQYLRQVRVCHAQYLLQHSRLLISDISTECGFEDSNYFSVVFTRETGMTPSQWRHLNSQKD

Sequence of LacI (P03023 whole entry): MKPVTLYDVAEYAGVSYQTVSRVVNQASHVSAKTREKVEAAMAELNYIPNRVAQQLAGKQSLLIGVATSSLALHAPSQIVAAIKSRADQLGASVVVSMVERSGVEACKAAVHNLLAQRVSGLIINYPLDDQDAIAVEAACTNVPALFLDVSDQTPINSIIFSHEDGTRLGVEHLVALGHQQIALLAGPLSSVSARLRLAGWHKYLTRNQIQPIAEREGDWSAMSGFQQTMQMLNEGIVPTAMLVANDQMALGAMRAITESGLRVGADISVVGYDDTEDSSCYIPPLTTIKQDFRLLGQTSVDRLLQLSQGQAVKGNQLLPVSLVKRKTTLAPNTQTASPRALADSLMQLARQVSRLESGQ
Sequence of RhaS (P09377 whole entry L201R): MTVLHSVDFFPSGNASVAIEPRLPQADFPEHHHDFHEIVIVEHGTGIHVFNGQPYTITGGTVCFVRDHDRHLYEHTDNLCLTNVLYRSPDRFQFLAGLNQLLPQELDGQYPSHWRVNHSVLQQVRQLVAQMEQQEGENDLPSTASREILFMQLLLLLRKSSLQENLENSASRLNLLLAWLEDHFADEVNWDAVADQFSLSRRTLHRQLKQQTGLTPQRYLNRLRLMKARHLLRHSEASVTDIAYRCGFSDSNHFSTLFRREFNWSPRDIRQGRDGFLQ

Question: How did the IC50 [1] turn out when CCCCN1C=C(c2ccc3ccccc3n2)C(C[N+](=O)[O-])c2ccccc21 (stereo not shown) [OSSL_051168, 1-butyl-4-nitromethyl-3-quinolin-2-yl-4H-quinoline] was run?
Answer: ~70 µM

Question: What about the IC50 [2] of the same molecule?
Answer: ~140 µM

B1: lac O1 probe (IR O1-For/O1-Rev) (dsDNA)
DNA 1: TGTTGTGTGGAATTGTGAGCGGATAACAATTTCACACAGG
DNA 2: CCTGTGTGAAATTGTTATCCGCTCACAATTCCACACAACA
Question: Does B1 bind [3]?
Answer: binds

B2: RhaR site probe (oligos 3056/3287) (dsDNA)
DNA 1: CGCTGTATCTTGAAAAATCGACGTTTTTTACGTGGTTTTCCGTCGAAAATTTAAGGTAAGAAC
DNA 2: GTTCTTACCTTAAATTTTCGACGGAAAACCACGTAAAAAACGTCGATTTTTCAAGATACAGCG
Question: Does B2 bind [4]?
Answer: binds
